# Patent US20250171434A1, “SEC61 INHIBITORS AND USE THEREOF” (KEZAR LIFE SCIENCES, INC., priority 2022, published 2025)
# Columns and labels:
# [1] = Liver Microsome Stability Assay, human; assay type: in vitro ADME; conditions: human liver microsomes 1.0 mg/mL, 1.0 uM compound, 37° C., 1 mM NADPH
# Procedure: (§1) Stability of a compound was assessed in the presence of liver microsomes from various sources—mouse, rat, monkey and human liver microsomes. 1.0 uM compound, 0.4% DMSO in 0.1 M Potassium Phosphate with 1.0 mg/mL liver microsomes, were incubated at 37° C. with or without 1 mM NADPH. The samples were quenched at 0, and 30 minutes.
# [2] = Liver Microsome Stability Assay, monkey; assay type: in vitro ADME; conditions: monkey liver microsomes 1.0 mg/mL, 1.0 uM compound, 37° C., 1 mM NADPH
# Procedure: as §1
# [3] = test system: multiple myeloma cell line U266B1; experiment: U266 Cell Viability Assay; assay type: cell-based; conditions: Homo sapiens, U-266; U266B1 cells, 48 hours, Celltiter-Glo; read-out: 48 hr U266 Viability Celltiter-Glo: Mean EC50
# Procedure: (§2) The human multiple myeloma cell line U266B1 was cultured in RPMI 1640 media supplemented with 10% fetal bovine serum, 2 mM Glutamine, and 1× Penicillin/Streptomycin. Cells were plated in 384-well tissue culture plates and treated with compound dilutions in DMSO/media. Plates were incubated at 37° C., 5% CO2 for 48 hours. After 48 hours, Celltiter-Glo® (Promega) was added to each well and luciferase signal was quantified using Tecan Infinite M1000 Pro for cell viability determination.
# (§3) For chemical structures that include one or more stereoisomers, but are illustrated without indicating stereochemistry, the assay data refers to a mixture of stereoisomers.
# CD47(ss + 10)Gluc = experiment: Dox-Induced CD47-ss-Gluc Assay; assay type: cell-based; conditions: Flp-In 293 T-REx cells, 24 hours with doxycycline; Table 1; read-out: 24 hr Dox Inducible CD47(ss + 10)Gluc 293FRT/TO: Mean IC50
# [4] = test system: PD1-ss+10aa/Gaussia Luciferase; experiment: Dox-Induced PD1-ss-Gluc Assay; assay type: cell-based; conditions: Flp-In 293 T-REx cells, 24 hours with doxycycline; Table 1; read-out: 24 hr Dox Inducible PD1ssGluc 293FRT/TO: Mean IC50
# Description: Flp-In 293 T-REx™ cells were transfected with pcDNA™5/FRT/TO plasmid inserted with cDNA encoding Gaussia Luciferase fused to the 3′ end of cDNA encoding PD1 signal sequence plus 10 amino acids (N-[…]-C) (SEQ ID NO: 1). Transfected cells were selected for resistance to the selectable markers Hygromycin and Blasticidin to create a stable cell line that contained the PD1-ss+10aa/Gaussia Luciferase cDNA insert whose expression was regulated under the T-REx™ system. The day before assay, cells were trypsinized and plated in 384-well tissue culture plates. The next day, compound dilutions in DMSO/media containing doxycycline were added to the wells and incubated at 37° C., 5% CO2.
# as §3
# [5] = test system: multiple myeloma cell line NCI-H929; experiment: H929 Cell Viability Assay; assay type: cell-based, human; conditions: Homo sapiens; NCI-H929 cells, 48 hours, Celltiter-Glo; read-out: 48 hr H929 Viability Celltiter-Glo: Mean EC50
# Procedure: as §2, with “NCI-H929” for “U266B1”, “cultured in Advanced RPMI 1640 media (Gibco®) supplemented with 6% fetal bovine serum, 2 mM Glutamine, and 1× Penicillin/Streptomycin. On the day of assay, cells were resuspended” for “cultured”, “Penicillin/Streptomycin and” for “Penicillin/Streptomycin. Cells were”
# as §3
# [6] = test system: IL-2-FL/Gaussia Luciferase; experiment: Dox Inducible IL2-FL-Gluc Assay; assay type: cell-based; conditions: Table 1; for IC50: Flp-In 293 T-REx cells, 24 hours with doxycycline, read-out: 24 hr Dox Inducible IL2FLGluc 293FRT/TO: Mean IC50; for 24 hr Dox Inducible IL2FLGluc 293FRT/TO: IL2/PD1: ratio of IC50s IL2/PD1
# Description: Flp-In 293 T-REx™ cells were transfected with pcDNA™5/FRT/TO plasmid inserted with cDNA encoding Gaussia Luciferase fused to the 3′ end of cDNA encoding full length IL-2 (amino acids 1-153). Transfected cells were selected for resistance to the selectable markers Hygromycin and Blasticidin to create a stable cell line that contained the IL-2-FL/Gaussia Luciferase cDNA insert whose expression was regulated under the T-REx™ system. The day before assay, cells were trypsinized and plated in 384-well tissue culture plates. The next day, compound dilutions in DMSO/media containing doxycycline were added to the wells and incubated at 37° C., 5% CO2.
# as §3
# [7] = test system: IL6R-ss+10aa/Gaussia Luciferase; experiment: Dox-induced IL-6R-ss-Gluc Assay; assay type: cell-based; conditions: Table 1; for IC50: Flp-In 293 T-REx cells, 24 hours with doxycycline, read-out: 24hr Dox Inducible IL6R(ss + 10)Gluc 293FRT/TO: Mean IC50; for 24hr Dox Inducible IL6R(ss + 10)Gluc 293FRT/TO: IL6R/PD1: ratio of IC50s IL6R/PD1
# Description: Flp-In 293 T-REx™ cells were transfected with pcDNATM5/FRT/TO plasmid inserted with cDNA encoding Gaussia Luciferase fused to the 3′ end of cDNA encoding IL6R signal sequence plus 10 amino acids (N-[…]-C). Transfected cells were selected for resistance to the selectable markers Hygromycin and Blasticidin to create a stable cell line that contained the IL6R-ss+10aa/Gaussia Luciferase cDNA insert whose expression was regulated under the T-REx™ system. The day before assay, cells were trypsinized and plated in 384-well tissue culture plates. The next day, compound dilutions in DMSO/media containing doxycycline were added to the wells and incubated at 37° C., 5% CO2.
# as §3
# [8] = Liver Microsome Stability Assay, mouse; assay type: in vitro ADME; conditions: mouse liver microsomes 1.0 mg/mL, 1.0 uM compound, 37° C., 1 mM NADPH
# Procedure: as §1
# [9] = Liver Microsome Stability Assay, rat; assay type: in vitro ADME; conditions: rat liver microsomes 1.0 mg/mL, 1.0 uM compound, 37° C., 1 mM NADPH
# Procedure: as §1
SMILES,Liver Microsome Stability (Multiple Species): Human - % Remaining after 30 min w/ NADPH (%) [1],Liver Microsome Stability (Multiple Species): Monkey - % Remaining after 30 min w/ NADPH (%) [2],EC50 [3],IC50 (CD47(ss + 10)Gluc),IC50 [4],EC50 [5],IC50 [6],IC50 [7],Liver Microsome Stability (Multiple Species): Mouse - % Remaining after 30 min w/ NADPH (%) [8],Liver Microsome Stability (Multiple Species): Rat - % Remaining after 30 min w/ NADPH (%) [9],24 hr Dox Inducible IL2FLGluc 293FRT/TO: IL2/PD1 [6],24hr Dox Inducible IL6R(ss + 10)Gluc 293FRT/TO: IL6R/PD1 [7]
"[2H]C([2H])(c1ccnc(F)c1)n1cc(Cl)cc1C(=O)Nc1nc(/C=C/c2ncn(C3CC3)c2Cl)cs1 [Compound A11, (E)-4-chloro-N-(4-(2-(5-chloro-1-cyclopropyl-1H-imidazol-4-yl)vinyl)thiazol-2-yl)-1-((2-fluoropyridin-4-yl)methyl-d2)-1H-pyrrole-2-carboxamide]",14%,6%,> 25000 nM,1460 nM,11 nM,11900 nM,1180 nM,1200 nM,87%,17%,110,112
"COc1cc(C(=O)Nc2nc(/C=C/c3ncn(C4CC4)c3Cl)cs2)n(Cc2ccnc(F)c2)c1 [Compound A13, (E)-N-(4-(2-(5-chloro-1-cyclopropyl-1H-imidazol-4-yl)vinyl)thiazol-2-yl)-1-((2-fluoropyridin-4-yl)methyl)-4-methoxy-1H-pyrrole-2-carboxamide]",48%,9%,> 25000 nM,2030 nM,5 nM,> 25000 nM,2310 nM,2560 nM,16%,62%,440,489
"[2H]C([2H])(c1ccnc(F)c1)n1cc(OC)cc1C(=O)Nc1nc(/C=C/c2ncn(C3CC3)c2Cl)cs1 [Compound A14, (E)-N-(4-(2-(5-chloro-1-cyclopropyl-1H-imidazol-4-yl)vinyl)thiazol-2-yl)-1-((2-fluoropyridin-4-yl)methyl-d2)-4-methoxy-1H-pyrrole-2-carboxamide]",29%,4%,> 25000 nM,3310 nM,7 nM,> 25000 nM,3440 nM,2110 nM,76%,20%,520,318

# Further lines, with some results ahead:
Liver Microsome Stability (Multiple Species): Human - % Remaining after 30 min w/ NADPH (%) [1],Liver Microsome Stability (Multiple Species): Monkey - % Remaining after 30 min w/ NADPH (%) [2],EC50 [3],IC50 (CD47(ss + 10)Gluc),IC50 [4],EC50 [5],IC50 [6],IC50 [7],Liver Microsome Stability (Multiple Species): Mouse - % Remaining after 30 min w/ NADPH (%) [8],Liver Microsome Stability (Multiple Species): Rat - % Remaining after 30 min w/ NADPH (%) [9],SMILES,24 hr Dox Inducible IL2FLGluc 293FRT/TO: IL2/PD1 [6],24hr Dox Inducible IL6R(ss + 10)Gluc 293FRT/TO: IL6R/PD1 [7]
64%,55%,> 25000 nM,2100 nM,14 nM,19500 nM,2700 nM,2430 nM,82%,84%,"CC(C)n1cnc(/C=C/c2csc(NC(=O)c3cc(OC(F)F)cn3Cc3ccnc(F)c3)n2)c1Cl [Compound A7, (E)-N-(4-(2-(5-chloro-1-isopropyl-1H-imidazol-4-yl)vinyl)thiazol-2-yl)-4-(difluoromethoxy)-1-((2-fluoropyridin-4-yl)methyl)-1H-pyrrole-2-carboxamide]",200,176
72%,68%,12800 nM,1740 nM,129 nM,7440 nM,1820 nM,1960 nM,86%,47%,"O=C(Nc1nc(/C=C/c2ncoc2C(F)(F)F)cs1)c1cc(Cl)cn1Cc1ccnc(F)c1 [Compound A8, (E)-4-chloro-1-((2-fluoropyridin-4-yl)methyl)-N-(4-(2-(5-(trifluoromethyl)oxazol-4-yl)vinyl)thiazol-2-yl)-1H-pyrrole-2-carboxamide]",14,15
11%,9%,> 25000 nM,> 25000 nM,> 25000 nM,> 25000 nM,> 25000 nM,> 25000 nM,64%,66%,"COc1cc(C(=O)Nc2nc(/C(F)=C/c3cn(C(C)C)cn3)cs2)n(Cc2ccnc(F)c2)c1 [Compound A9, (Z)-N-(4-(1-fluoro-2-(1-isopropyl-1H-imidazol-4-yl)vinyl)thiazol-2-yl)-1-((2-fluoropyridin-4-yl)methyl)-4-methoxy-1H-pyrrole-2-carboxamide]",,
27%,38%,> 25000 nM,933 nM,11 nM,5450 nM,1070 nM,1060 nM,87%,77%,"CC(C)n1cnc(/C=C/c2csc(NC(=O)c3cc(Cl)cn3Cc3ccnc(F)c3)n2)c1C(F)(F)F [Compound A10, (E)-4-chloro-1-((2-fluoropyridin-4-yl)methyl)-N-(4-(2-(1-isopropyl-5-(trifluoromethyl)-1H-imidazol-4-yl)vinyl)thiazol-2-yl)-1H-pyrrole-2-carboxamide]",97,96
